Laboratory results: US8759579B2, “Cyclobutyl sulfones as notch sparing gamma secretase inhibitors” (Merck Sharp & Dohme Corp., priority 2008, dated 2014)
“Also recorded” adds a separate entry of the source.

Assays:
[1] = target: T1, pregnane X receptor (PXR) (Homo sapiens, UniProt O75469); test: PXR assay (CYP3A4-SEAP transactivation assay, PCSTA); assay type: cell-based; conditions: HEP G2 cells
T1 construct: expressed in transfected cells; host or cells: HEP G2
T1 sequence (O75469 1-434): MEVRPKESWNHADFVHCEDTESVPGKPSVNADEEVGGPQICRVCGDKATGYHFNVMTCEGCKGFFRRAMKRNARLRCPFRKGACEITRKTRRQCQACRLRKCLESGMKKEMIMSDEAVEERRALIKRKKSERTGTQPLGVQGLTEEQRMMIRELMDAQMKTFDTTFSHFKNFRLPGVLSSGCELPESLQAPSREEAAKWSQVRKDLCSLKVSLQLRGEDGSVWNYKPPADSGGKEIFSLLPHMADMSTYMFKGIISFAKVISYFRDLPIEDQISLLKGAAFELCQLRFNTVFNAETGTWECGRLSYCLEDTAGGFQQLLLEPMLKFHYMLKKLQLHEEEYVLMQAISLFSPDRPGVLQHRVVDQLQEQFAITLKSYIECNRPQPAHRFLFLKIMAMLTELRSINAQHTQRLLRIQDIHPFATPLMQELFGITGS
T1 sequence (P19793 1-462 partner): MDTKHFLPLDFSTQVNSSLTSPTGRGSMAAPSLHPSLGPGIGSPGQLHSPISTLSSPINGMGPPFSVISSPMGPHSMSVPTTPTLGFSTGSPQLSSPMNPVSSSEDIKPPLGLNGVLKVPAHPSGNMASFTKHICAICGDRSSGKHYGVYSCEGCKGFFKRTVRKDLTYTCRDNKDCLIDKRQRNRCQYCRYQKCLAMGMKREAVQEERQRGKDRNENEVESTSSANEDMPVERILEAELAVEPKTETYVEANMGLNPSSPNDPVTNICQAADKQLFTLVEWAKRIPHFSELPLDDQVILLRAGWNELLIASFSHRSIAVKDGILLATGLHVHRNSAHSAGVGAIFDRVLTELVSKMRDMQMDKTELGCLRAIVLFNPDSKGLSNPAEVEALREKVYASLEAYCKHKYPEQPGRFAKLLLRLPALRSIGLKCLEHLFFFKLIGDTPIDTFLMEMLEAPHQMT
Text: The CYP3A4-SEAP transactivation assay (PCSTA) effectively and rapidly evaluates compounds for their potential to induce cytochrome P450 CYP3A (human CYP3A4 or rat CYP3A1). The reporter construct contains regulatory regions from the CYP3A4 gene positioned just upstream of a secreted alkaline phosphatase (SEAP) gene. The human PXR nuclear receptor has been modified at the 5′-end so that methionine is the initiating amino acid replacing leucine found in the wild-type sequence. HEP G2 cells are transfected with the PXR plasmid (human or rat) and the reporter plasmid. Read-out for the induction of CYP3A4 consists of a SEAP calorimetric assay with para-nitro-phenyl phosphate (pNPP) as the substrate. Five point dose-response curves in duplicate are then generated with each point corresponding to the rate of conversion of pNPP to pNP by SEAP. For the human PCSTA, rifampicin is used as the positive control and 100% induction is based upon the maximum induction produced by rifampicin at 10 μM.

[2] = test system: γ-secretase substrates NotchΔE, E-cadherin, SCN2b and CD43 in HEK293 cells; test: Full length γ-secretase substrates, immunoblot of cell lysates; assay type: cell-based; conditions: titrated concentrations with TPA
Protocol: Assessing Full Length γ-Secretase Substrates (Assay Qualitatively Assesses the Processing of a Panel of γ-Secretase Substrates)
Cells are plated and treated overnight with titrated compound and the phorbol ester, TPA. Since all of the proteins undergo regulated membrane proteolysis characterized by an initial ectodomain shedding event followed by the intramembraneous cleavage of the […] fragment (CTF) by γ-secretase, TPA induces the initial cleavage event producing the substrate for γ-secretase. The effect of compounds on γ-secretase activity in relation to these substrates is measured by tracking the processing of the V5 tagged CTFs by Western blot analysis. Accumulation of the CTFs indicates inhibition of γ-secretase activity.

[3] = test system: Tg2576 mouse; conditions: cited from earlier work
[4] = test system: ε/S3-site cleavage of γ-secretase substrates (APP-GVP, NotchΔE-GVP, E-cadherin-GVP, CD44-GVP); test: ICD transactivation assay (intracellular domain release of γ-secretase substrates); assay type: cell-based; conditions: HEK cells, 1 μM, 48 hours
Text: ICD Transactivation (Assay Quantitates Intracellular Domain Release of a Panel of γ-Secretase Substrates in Cell Lines)
A Firefly luciferase based transactivation assay is used to measure inhibition of ε/S3-site cleavage of γ-secretase substrates. This assay involves the use of chimeric substrates harboring a GAL4/VP16 (GVP) transactivation domain fused to the intracellular domain (ICD): APP-GVP, NotchΔE-GVP, E-cadherin-GVP and CD44-GVP. Upon cleavage and release of ICDs, the GVP domain drives the expression of the luciferase gene under the control of the UAS promoter. In this assay, HEK cells were transiently co-transfected with the chimeric substrate along with a UAS promoter driven luciferase and β-galactosidase (transfection control). Upon cleavage by γ-secretase, the released ICD-GVP translocates to the nucleus to drive the expression of the UAS-luciferase gene. The activity of luciferase in these cells is directly proportional to the amount of γ-secretase-cleaved ICDs. Luciferase activity is determined by the standard techniques of luciferin addition to lysed cells and measurement of total luminescence. In addition, to account for the differences in transfection efficiencies an absorbance based β-galactosidase enzyme assay is performed to normalize the luminescence read-out.

[5] = test system: γ-secretase complex; test: Compound binding assay (displacement of tritiated γ-secretase inhibitor tracers); conditions: semi-purified γ-secretase complex, increasing concentrations
Protocol: Compound Binding: (Assay Quantitates In Vitro Displacement of Bound γ-Secretase Inhibitor Tracers)
All radioligand binding experiments are performed using CHAPSO-solubilized HEK293 (gammaNRCF8) P2 membranes stably over expressing recombinant gamma secretase. For radioligand binding, solubilized enzyme is incubated in the presence of tritiated inhibitors. Nonspecific binding is determined by adding an excess of unlabeled inhibitor to the reaction, and serial dilutions of the tritiated ligands are used to obtain saturation binding isotherm. Bound ligand is separated from free ligand by adsorption of the enzyme complex to polyethyleneimine-coated glass fiber filter plates and rapid filtration in a cell harvester followed by washing. After drying plates, scintillant is added, and the plates are read on a Microplate Scintillation counter. Binding competition assay is performed by incubating serial dilutions of various inhibitors in the presence of 1 nM ^3H-labeled compound Reference Example L-458 (transition state inhibitor) or 4 nM ^3H-labeled compound Reference Example L-881 (non-transition state inhibitor). To determine the antagonist competitiveness of various inhibitors, respective ^3H tracer doss-response curves are analyzed in presence of different concentrations of these compounds.

[6] = test system: APP and Notch processing pathway; conditions: literature report; cited from earlier work
[7] = covalent protein binding assay with liver microsomes; assay type: in vitro ADME; conditions: radiolabeled compound incubated with human liver microsomes
Protocol: MRK-560 and Example 2 were tested in a covalent protein binding assay which is predictive of drug toxicity. The potential of drug candidates to cause covalent binding to proteins is evaluated by incubation of the radiolabeled version of the compound in question with liver microsomes. A semi-automated method based on Brandel Harvester technique is then used to measure the formation of covalent adducts of the test compound to liver proteins binding (Ref. Day et. al, J Pharmacol Toxicol Methods. 52, 278-85, 2005).

Which EC50 [1] does the source give for `O=S(=O)(NC1CCC(c2cc(F)ccc2F)(S(=O)(=O)c2ccc(Cl)cc2)CC1)C(F)(F)F` (stereo not shown) [MRK-560] here?
The EC50 was 617 nM.

What about the “accumulation of CTFs (immunoblot)” value ([2]; HEK293 cells overexpressing E-cadherin, SCN2b, CD43) of the same compound?
The value was “caused accumulation of CTFs; also recorded: SCN2b-, ECAD- and CD43-CTF accumulation”.

And the “NICD generation (immunoblot)” value ([2]; HEK293 cells overexpressing NotchΔE)?
Its value is “inhibited NICD generation”.

What about the “effects on amyloid plaque deposition” value [3] of the same compound?
Its value is “beneficial effects on amyloid plaque deposition”.

And the “toxicity related to changes in the Notch signaling pathway” value [3]?
The value was “absence of toxicity”.

And the “ICD release of γ-secretase substrates (ε/S3-cleavage)” value [4]?
The value was “inhibited ICD release of all examined substrates”.

What about the “displacement of tritiated tracer L-458 (transition state)” value [5] of the same compound?
Its value is “partial”.

And the “displacement of tritiated tracer L-881 (non transition state)” value [5]?
Its value is “full”.

What about the “separation between in vitro inhibition of APP and Notch processing pathway” value [6] of the same compound?
The value was “little or no separation”.

And the “covalent protein binding (human microsomes)” value [7]?
The value was 1308 pmol/mg.
